Laboratory results: US10189863B2, “5,6-dihydro-4H-benzo[b]thieno-[2,3-d]azepine derivatives” (PULMOCIDE LIMITED, priority 2014, dated 2019)

Assays:
[1] = test system: RSV A2 strain; assay: Assessment of RSV induced CPE in HEp2 cells (RSV A2 strain); assay type: cell-based; details: human respiratory syncytial virus, HEp2 cells; for IC50: HEp-2, 120 h, 1 MOI, 5 days, read-out: RSV A2 CPE IC50; for inhibition at 0.01 µg/mL: HEp-2, Inhibition (%) at 0.01 μg/mL
Summary of the method: (§1)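 HEp2 cells were infected at MOI 1 with RSV A2 or RSV B Washington, with compound added at the same time (0.5% DMSO final). Incubation was 5 days for A2 and 6 days for B, then viability was read by resazurin fluorescence (545/590 nm) after 6 h. IC50, IC75 and IC90 came from concentration-response curves.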

[2] = test system: RSV B Washington strain; assay: Assessment of RSV induced CPE in HEp2 cells (RSV B Washington strain); assay type: cell-based; details: human respiratory syncytial virus, HEp2 cells; for IC50: HEp-2, 144 h, 1 MOI, 6 days, read-out: RSV B CPE IC50; for inhibition at 0.1 µg/mL: Inhibition (%) at 0.1 μg/mL
Summary of the method: as §1

[3] = test system: RSV A2 F-protein expression in BEAS2B bronchial epithelial cells; assay: Assessment of RSV F protein expression in BEAS2B bronchial epithelial cells; assay type: cell-based; details: human respiratory syncytial virus, BEAS-2B, 72 h, read-out: RSV A2 F-protein IC50 (nM)
Protocol: Assessment of RSV F Protein Expression in BEAS2B Bronchial Epithelial Cells
An early event which follows the infection of epithelial cells by RSV is the expression of RSV F-protein on the cells' surface. BEAS2B cells (SV40-immortalised human bronchial epithelial cell line) were grown in 96 well plates. Once more than 70% confluent, cells were infected with RSV A2 (#0709161v, NCPV, Public Health England, Wiltshire) at an MOI of 0.01 in clear RPMI-1640 medium (Life technologies, Paisley, UK) with 2% FBS (Life technologies, Paisley, UK), and incubated for 3 days (37° C./5% CO2).
Supernatant was aspirated and the cells were fixed with 4% formaldehyde (100 μL in PBS solution) for 20 min, washed 3 times with washing buffer (200 μL; PBS containing 0.05% Tween-20) and incubated with blocking solution (100 μL; 5% Marvel milk in PBS) for 1 hr. Cells were then washed with washing buffer (200 μL) and incubated for 1 hr at 37° C. with anti-RSV (2F7; mouse monoclonal, lot 160290, Cat. No. ab43812, Abcam plc, Cambridge, UK) F-fusion protein antibody (50 μL; prepared at a 1:1000 dilution in 5% milk/PBS-tween). After washing, cells were incubated with an HRP-conjugated anti-mouse IgG antibody (50 μL prepared at a 1:2000 dilution in 5% milk in PBS; lot 00095437, Cat.No. P0447, Dako UK Ltd, Cambridgeshire, UK) for 1 hr. Cells were washed twice with washing buffer and once with PBS. TMB substrate (100 μL; substrate reagent pack lot 320436, Cat. No. DY999, R&D Systems, Inc. Abingdon, UK) was then added and the reaction was stopped by the addition of aq sulfuric acid (50 μL; 2N). The resultant signal was determined colourimetrically (OD: 450 nm with a reference wavelength of 655 nm) in a microplate reader (Multiskan FC®, ThermoFisher Scientific). Cells were then washed and 1% crystal violet solution (50 μL; lot SLB4576, Cat. No. HT90132-1L, Sigma-Aldrich) was applied for 30 min. After washing with PBS (200 μL) 3 times, 1% SDS (100 μL) was added to each well, and plates were shaken lightly for 1 hr prior to reading the absorbance at 595 nm. The measured OD450-655 readings were corrected for cell number by dividing the OD450-655 by the OD595 readings. The percentage inhibition for each well was calculated and the IC50 value derived from the concentration-response curve generated for each test compound.

[4] = Cell viability: resazurin assay; assay type: cell-based, human; details: human, HEp2 cells
Summary of the method: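 Viability read-out: resazurin fluorescence (ex 545, em 590 nm) after 6 h, following 5-day compound incubation of HEp2 cells (37 °C, 5% CO2, 5% FBS, 0.5% DMSO final). Loss expressed as percentage of vehicle, negative if viability rose; CC50 derived from concentration-response curve where appropriate.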

Row | SMILES | IC50 [1] [nM] | inhibition at 0.01 µg/mL [1] [%] | IC50 [2] [nM] | inhibition at 1 µg/mL ([2]; HEp-2, Inhibition (%) at 1 μg/mL, read-out: RSV B CPE % Inhibition) [%] | IC50 [3] [nM] | CC50 at 5 days [4] [nM] | inhibition at 0.1 µg/mL ([2]; HEp-2) [%]
1 | O=C(Nc1c(F)cccc1Cl)c1cc2c(s1)-c1ccccc1N(C(=O)c1ccc(NC(=O)c3cc(C4CC4)cnc3N3CC4(CCOCC4)C3)cc1)CC2 [Example 65, N-(2-chloro-6-fluorophenyl)-6-(4-(5-cyclopropyl-2-(7-oxa-2-azaspiro[3.5]nonan-2-yl)nicotinamido)benzoyl)-5,6-dihydro-4H-benzo[b]thieno[2,3-d]azepine-2-carboxamide] | 0.13 | 100 | 1.6 | 100 | 0.59 | > 13100 | –
2 | Cc1cccc(F)c1NC(=O)c1cc2c(s1)-c1ccccc1N(C(=O)c1ccc(NC(=O)c3cc4c(nc3N3CC5(CCOCC5)C3)CCCC4)cc1)CC2 [Example 9, 6-(4-(2-(7-Oxa-2-azaspiro[3.5]nonan-2-yl)-5,6,7,8-tetrahydroquinoline-3-carboxamido)benzoyl)-N-(2-fluoro-6-methylphenyl)-5,6-dihydro-4H-benzo[b]thieno[2,3-d]azepine-2-carboxamide] | 0.39 | 92 | 1.4 | – | 0.034 | 12500 | 100
3 | O=C(Nc1c(F)cccc1Cl)c1cc2c(s1)-c1ccccc1N(C(=O)c1ccc(NC(=O)c3cc4c(nc3N3CC5(CCOCC5)C3)CCCC4)cc1)CC2 [Example 81, 6-(4-(2-(7-oxa-2-azaspiro[3.5]nonan-2-yl)-5,6,7,8-tetra-hydroquinoline-3-carboxamido)benzoyl)-N-(2-chloro-6-fluorophenyl)-5,6-dihydro-4H-benzo[b]thieno[2,3-d]azepine-2-carboxamide] | 0.18 | 77 | 10.2 | – | 0.13 | > 12900 | 100
